The supplement of paper PMC6045584
± gives the standard deviation of the averaged measurements.

Assays:
XAV-939 = compound: Oc1nc(-c2ccc(C(F)(F)F)cc2)nc2c1CSCC2 [XAV-939]; test: surviving fraction relative to DMSO-only wells; higher = less growth inhibition; details: exposure time: 5 days
How it was run: (§1)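 Inhibitors were tested at 0.5, 1, 5, 10, 50, 100, 500 and 1000 nM, applied continuously for five days beginning 24 hours after log-phase tumour cells were seeded at 250–500 per well in 384-well plates. CellTiter-Glo luminescence served as the viability measure, expressed as surviving fraction against the median of DMSO-only wells. Each line, screened three times, was kept only with replicate Pearson r >0.7 and median Z' >0.3.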

TEMOZOLOMIDE = compound: Cn1nnc2c(C(N)=O)ncn2c1=O [TEMOZOLOMIDE]; test: as above; details: exposure time: 5 days
How it was run: as §1

Test System	surviving fraction (XAV-939; 0.5 nM)	surviving fraction (XAV-939; 1 nM)	surviving fraction (XAV-939; 5 nM)	surviving fraction (XAV-939; 10 nM)	surviving fraction (XAV-939; 50 nM)	surviving fraction (XAV-939; 100 nM)	surviving fraction (XAV-939; 500 nM)	surviving fraction (XAV-939; 1000 nM)	surviving fraction (TEMOZOLOMIDE; 0.5 nM)	surviving fraction (TEMOZOLOMIDE; 1 nM)	surviving fraction (TEMOZOLOMIDE; 5 nM)	surviving fraction (TEMOZOLOMIDE; 10 nM)	surviving fraction (TEMOZOLOMIDE; 50 nM)	surviving fraction (TEMOZOLOMIDE; 100 nM)	surviving fraction (TEMOZOLOMIDE; 500 nM)	surviving fraction (TEMOZOLOMIDE; 1000 nM)
BT20 BREAST	1.08 ± 0.19	1.06 ± 0.043	1.05 ± 0.079	1.05 ± 0.051	1.08 ± 0.14	1.14 ± 0.05	1.26 ± 0.057	1.23 ± 0.1	1.05 ± 0.097	1.07 ± 0.15	1.04 ± 0.085	1.13 ± 0.11	1.01 ± 0.053	1.08 ± 0.081	1.03 ± 0.053	1.15 ± 0.052
BT549 BREAST	1.16 ± 0.085	1.19 ± 0.079	1.03 ± 0.077	1.16 ± 0.082	1.18 ± 0.044	1.08 ± 0.091	0.884 ± 0.014	0.872 ± 0.091	1.1 ± 0.12	1.08 ± 0.085	1.05 ± 0.1	1.12 ± 0.13	1.09 ± 0.043	1.26 ± 0.1	1.09 ± 0.07	1.19 ± 0.14
C33A CERVIX	0.909 ± 0.039	0.973 ± 0.1	0.981 ± 0.032	1.03 ± 0.068	0.913 ± 0.068	0.901 ± 0.048	0.835 ± 0.062	0.755 ± 0.04	0.944 ± 0.13	0.901 ± 0.11	1.02 ± 0.056	0.929 ± 0.088	0.944 ± 0.047	1.05 ± 0.061	0.924 ± 0.012	0.984 ± 0.068
CADOES1 SOFT TISSUE	0.957 ± 0.1	0.993 ± 0.092	0.816 ± 0.0092	0.903 ± 0.049	0.857 ± 0.13	0.899 ± 0.094	0.922 ± 0.076	0.913 ± 0.091	0.965 ± 0.14	0.979 ± 0.071	0.907 ± 0.07	0.877 ± 0.032	0.956 ± 0.068	0.937 ± 0.04	0.968 ± 0.096	0.969 ± 0.12
CAL51 BREAST	0.967 ± 0.032	1.03 ± 0.046	1.02 ± 0.025	0.992 ± 0.017	1.01 ± 0.049	1.01 ± 0.023	0.846 ± 0.033	0.799 ± 0.089	0.973 ± 0.038	1.05 ± 0.037	0.993 ± 0.02	1.07 ± 0.048	1.05 ± 0.057	1.06 ± 0.048	1.04 ± 0.032	1.02 ± 0.037
